Source: US10041115B2, “3′-OH unblocked, fast photocleavable terminating nucleotides and methods for nucleic acid sequencing” (LASERGEN, INC., priority 2011, dated 2018)

Legend:
[1] = Photochemical cleavage assays of incorporated nucleotide analogs (365 nm UV light, DT50); type: physicochemical; conditions: for DT50 in 1 mM NaN3, 50 mM DTT / DT50 in 1 mM NaN3, No DTT: 365 nm UV, 0.70 W/cm^2; for faster photochemical cleavage rates of ds2 isomers compared with their ds1 counterparts, factor: ds2 vs ds1 isomer of the same analog
Method: As used herein, the term “DT50” refers to the amount of time required to cleavage 50% of the base analog incorporated in the primer-template complex.
To compare the rates of photochemical cleavage between the nucleotide analogs described here, a protocol was developed to deliver a daily light intensity output of 0.70±0.01 W/cm^2 to samples, see below.
The power supply was turned on for about 30 min prior to that of the lamp and recirculation bath as described by the manufacturer. The IR liquid filter was cooled to 9° C. Light intensity was determined using a model PM100 power meter (Thorlabs), a 1000 μm pinhole (Edmund Optics), a modified 0.5 mL Eppendorf tube cut in half, and a 3-axis manual translation stage (Newport), see FIG. 5. The half cut Eppendorf tube was positioned in front of the pinhole and power meter detector head to account for the geometric shape distortion of the light as it passes through a reaction solution. The translation stage was then used to align the tube/pinhole/detector device with the highest intensity from the arc beam.
To stabilize its output, the lamp was left on for one hour prior to intensity measurements. Thereafter, the measured power was adjusted by increasing the current from the power supply. In order to achieve intensity (I) of 0.70 W/cm^2, the measured power (P) was adjusted to ˜5.5 mW, according to the equation:
[formula] where r is the radius of pinhole.
The beam was then focused by placing an 0.5 mL Eppendorf tube into the sample holder, the tube of which was modified with an internal alignment card to provide reference lines for volume heights of 10 μL and 20 μL, see FIG. 5. The reference lines enabled the beam to be centered for a given reaction volume. Beam alignment was further verified by observing the mercury arc image of the lamp produced by the rear reflector. A second alignment card was placed into the rotating sample holder to view the image, which when properly aligned using the reflector would produce an inverted arc image on the arc gap itself. This step ensured that arc hotspots were not superimposed, which could cause overheating while maintaining a power output of ˜5.5 mW. The speed of the rotating sample holder was adjusted within a range of 1,200-1,350 rpm using a Nova-Strobe DA Plus stroboscope (Monarch Instrument) by adjusting the motor's torque with an adjustment screw.
Photochemical cleavage assays: Nucleotide analogs were incorporated using 10 μL reactions, as described for the PEP assays, at a final concentration of 100 nM. […] OligoTemplate-2, oligoTemplate-5, and oligoTemplate-4 each hybridized with BODIPY-FL labeled primer-1 were used for C^7-HOMedA, C^7-HOMedG, and HOMedU analogs, respectively. OligoTemplate-8 hybridized with BODIPY-FL labeled primer-3 was used to assay HOMedC analogs. Incorporated reactions were quenched with either 1 mM sodium azide solution; 1 mM sodium azide, 50 mM DTT solution; or reagents C-G (see key in FIG. 4), exposed to 365 nm ultraviolet (UV) light for various time points using our UV deprotector, and then placed on ice.

[2] = tested on: DNA synthesis; assay: Termination assays (incorporation and termination of DNA synthesis); type: biochemical; conditions: 10 μM
Text: Another class of 3′-OH unblocked nucleotides has been described by Mitra et al. (2003) and Turcatti et al. (2008), which rely on steric hindrance of the bulky dye group to stop incorporation after the addition of the first nucleotide. It is noted that the substituted 2-nitrobenzyl nucleotide analogs described by Wu et al. (2007), Litosh et al. (2011), and Gardner et al., 2012 cause termination of DNA synthesis without the requirement of bulky substituents such as fluorescent dyes. A further class of 3′-unblocked nucleotides has been described by Helicos Biosciences. These nucleotides use a second nucleoside or nucleotide analog that acts as an inhibitor of DNA synthesis (Bowers et al., 2009; U.S. Pat. No. 7,476,734). A significant difference in termination properties is observed when comparing compounds of the present invention with those described by Bowers. For example, Bowers et al. described pre-steady-state kinetics employing two-base homopolymer templates, for which kpol(+2) rates were measured for all of their 3′-OH unblocked ‘virtual’ terminators. Bowers et al. conducted their termination experiments at submicromolar nucleotide concentrations (i.e., from 100 to 250 nM), termination assays. In contrast, several compounds of the present invention were performed at 10 μM over the time course of 0.5 to 20 min. […]

[3] = Table 3, reversible terminators
[4] = Table 3, reversible terminators, [a] transient product considered as cleaved product
[5] = Table 1, C^7-HOMedA analogs, average ± 1SD, triplicate
[6] = Table 2, C^7-HOMedG analogs, average ± 1SD, triplicate

Compound	DT50 in 1 mM NaN3, 50 mM DTT [1, 3] [s]	DT50 in 1 mM NaN3, No DTT [1, 4]	DT50 in 1 mM NaN3, 50 mM DTT [1, 5] [s]	DT50 in 1 mM NaN3, No DTT [1, 5] [s]	DT50 in 1 mM NaN3, 50 mM DTT [1, 6] [s]	DT50 in 1 mM NaN3, No DTT [1, 6] [s]	further results
COc1ccc([N+](=O)[O-])c([C@@H](OCc2cn([C@H]3C[C@H](O)[C@@H](COP(=O)(O)OP(=O)(O)OP(=O)(O)O)O3)c(=O)[nH]c2=O)C(C)(C)C)c1 [dU.VI, 5-[(S)-1-(5-Methoxy-2-nitrophenyl)-2,2-dimethyl-propyloxy]methyl-2′-deoxyuridine-5′-triphosphate]	0.7 ± 0.1	0.7 ± 0.1^[a] sec	–	–	–	–	incorporated at the first base position ([2]; by 2 min): 100%; signal at the expected second-base position (termination of DNA synthesis) ([2]; incubation times up to 20 min): No appreciable signal could be detected
COc1ccc(C(OCc2cn([C@H]3C[C@H](O)[C@@H](COP(=O)(O)OP(=O)(O)OP(=O)(O)O)O3)c3ncnc(N)c23)C(C)C)c([N+](=O)[O-])c1 (single isomer, unassigned) [dA.III.b ds2, 7-[1-(4-methoxy-2-nitrophenyl)-2-methyl-propyloxy]methyl-7-deaza-2′-deoxyadenosine-5′-triphosphate]	–	–	1.0 ± 0.1	1.1 ± 0.1	–	–	faster photochemical cleavage rates of ds2 isomers compared with their ds1 counterparts, factor [1]: 6.4 ×
CC(C)C(OCc1cn([C@H]2C[C@H](O)[C@@H](COP(=O)(O)OP(=O)(O)OP(=O)(O)O)O2)c2ncnc(N)c12)c1ccccc1[N+](=O)[O-] (single isomer, unassigned) [dA.III.a ds2, 7-[1-(2-nitrophenyl)-2-methyl-propyloxy]methyl-7-deaza-2′-deoxyadenosine-5′-triphosphate]	–	–	2.1 ± 0.1	2.2 ± 0.1	–	–	faster photochemical cleavage rates of ds2 isomers compared with their ds1 counterparts, factor [1]: 2.0 ×
CC(C)(C)C(OCc1cn([C@H]2C[C@H](O)[C@@H](COP(=O)(O)OP(=O)(O)OP(=O)(O)O)O2)c2nc(N)[nH]c(=O)c12)c1ccccc1[N+](=O)[O-] (single isomer, unassigned) [dG.V.a ds2, 7-[1-(2-nitrophenyl)-2,2-dimethyl-propyloxy]methyl-7-deaza-2′-deoxyguanosine-5′-triphosphate]	–	–	–	–	3.5 ± 0.3	3.6 ± 0.3	faster photochemical cleavage rates of ds2 isomers compared with their ds1 counterparts, factor [1]: 3.1 ×
Nc1ncnc2c1c(COCc1ccccc1[N+](=O)[O-])cn2[C@H]1C[C@H](O)[C@@H](COP(=O)(O)OP(=O)(O)OP(=O)(O)O)O1 [dA.I, 7-(2-nitro-benzyloxy)methyl-7-deaza-2′-deoxyadenosine-5′-triphosphate]	3.5 ± 0.1	3.6 ± 0.1 s	3.5 ± 0.1	3.6 ± 0.1	–	–	–
CC(C)C(OCc1cn([C@H]2C[C@H](O)[C@@H](COP(=O)(O)OP(=O)(O)OP(=O)(O)O)O2)c2ncnc(N)c12)c1ccccc1[N+](=O)[O-] (single isomer, unassigned) [dA.III.a ds1, 7-[1-(2-nitrophenyl)-2-methyl-propyloxy]methyl-7-deaza-2′-deoxyadenosine-5′-triphosphate]	–	–	4.4 ± 0.2	4.5 ± 0.2	–	–	DT50 value of ds1 isomer compared with the parent dA.I analog ([1]; ds1 isomers of the α-isopropyl C^7-HOMedA set): higher
COc1ccc(C(OCc2cn([C@H]3C[C@H](O)[C@@H](COP(=O)(O)OP(=O)(O)OP(=O)(O)O)O3)c3nc(N)[nH]c(=O)c23)C(C)(C)C)c([N+](=O)[O-])c1 (single isomer, unassigned) [dG.V.b ds1, 7-[1-(4-methoxy-2-nitrophenyl)-2,2-dimethyl-propyloxy]methyl-7-deaza-2′-deoxyguanosine-5′-triphosphate]	–	–	–	–	4.6 ± 0.3	4.9 ± 0.3	–
CC(C)(C)C(OCc1cn([C@H]2C[C@H](O)[C@@H](COP(=O)(O)OP(=O)(O)OP(=O)(O)O)O2)c2nc(N)[nH]c(=O)c12)c1ccccc1[N+](=O)[O-] (stereo partly drawn) [dG.V.a ds1, 7-[1-(2-nitrophenyl)-2,2-dimethyl-propyloxy]methyl-7-deaza-2′-deoxyguanosine-5′-triphosphate]	–	–	–	–	10.7 ± 0.2	11.0 ± 0.4	–
CC(C)(C)[C@H](OCc1cn([C@H]2C[C@H](O)[C@@H](COP(=O)(O)OP(=O)(O)OP(=O)(O)O)O2)c2ncnc(N)c12)c1ccccc1[N+](=O)[O-] [dA.V, 7-[(S)-1-(2-nitrophenyl)-2,2-dimethyl-propyloxy]methyl-7-deaza-2′-deoxyadenosine-5′-triphosphate]	2.0 ± 0.2	2.1 ± 0.1 s	–	–	–	–	–
Nc1nc2c(c(COCc3ccccc3[N+](=O)[O-])cn2[C@H]2C[C@H](O)[C@@H](COP(=O)(O)OP(=O)(O)OP(=O)(O)O)O2)c(=O)[nH]1 [dG.I, 7-(2-nitrobenzyloxy)methyl-7-deaza-2′-deoxyguanosine-5′-triphosphate]	8.1 ± 0.2	9.2 ± 0.3 s	–	–	8.1 ± 0.2	9.2 ± 0.3	DT50 values ([1]; UV photochemical cleavage experiments): 9.2 s
CC(C)(C)[C@H](OCc1cn([C@H]2C[C@H](O)[C@@H](COP(=O)(O)OP(=O)(O)OP(=O)(O)O)O2)c(=O)nc1N)c1ccccc1[N+](=O)[O-] [dC.V, 5-[(S)-1-(2-nitrophenyl)-2,2-dimethyl-propyloxy]methyl-2′-deoxycytidine-5′-triphosphate]	1.0 ± 0.2	1.2 ± 0.1 s	–	–	–	–	–
